Literature values as cited in patent publication US10314839B2, “Diversion-resistant opioid formulations” (priority 2014, dated 2019).
Where a name gives a salt, the structure may show the parent alone.

Columns and labels:
opioid receptor [1] = test system: opioid receptor
[2] = test system: mu over delta receptor sub-types
opioid receptor [3] = settings: after oral doses
[4] = hydrochloride salt

SMILES: O=C1CC[C@@]2(O)[C@H]3Cc4ccc(O)c5c4[C@@]2(CCN3CC2CC2)[C@H]1O5 [naltrexone]
- Opioid agonist effects / properties (opioid receptor [1]): no opioid agonist properties
- Preferential blocking action between receptor sub-types [2]: strong preferential blocking action against mu over delta receptor sub-types
- Protein binding (in vivo): approximately 21%
- Oral bioavailability (oral administration): 5-40%
- Duration of action (opioid receptor [3]): ~24 h

SMILES: O=C1CC[C@@]2(O)[C@H]3Cc4ccc(O)c5c4[C@@]2(CCN3CC2CC2)[C@H]1O5 [hydrochloride salt of naltrexone, naltrexone]
- Solubility in water [4]: up to 100 mg/mL

SMILES: C[C@H]1[C@H]2Cc3ccc(O)cc3[C@]1(C)CCN2CC1CC1 [cyclazocine]
- Duration of action (opioid receptor [3]): ~24 h
